Results as given in patent US20240226106A1, “INHIBITORS OF PLASMA KALLIKREIN” (SHIRE HUMAN GENETIC THERAPIES, INC., priority 2021, published 2024).

Experiments:
[1] = target: T1, plasma kallikrein (Homo sapiens, UniProt P03952); assay: Neat human plasma assay (fluorogenic peptide), contact pathway-activated plasma; assay type: biochemical; details: citrated human plasma, 10 nM human FXIIa activation, 100 μM PFR-AMC, room temperature; read-out: Human Plasma Assay: IC90
T1 construct: from tissue; host or cells: sodium citrate collected human plasma
Description: To analyze inhibition of plasma kallikrein in an ex vivo setting, the potency of compounds was measure in contact pathway-activated plasma assays. In a fluorogenic peptide substrate assay, test compounds dissolved in DMSO were added to sodium citrate collected human or rat plasma in a 96-well microplate. Alternatively, citrated plasma was collected from rats administered the compounds orally or by IV. 10 nM of human FXIIa (Enzyme Research Laboratories) diluted in PKa buffer (20 mM Tris-HCl, pH 7.5, 150 mM NaCl, 1 mM EDTA, 0.100 PEG-8000, and 0.1% Triton X-100) was added to the plasma, followed by the 100 μM of the profluorescent, synthetic plasma kallikrein substrate PFR-AMC (also diluted in PKa buffer). Final plasma concentration in the reaction was […]. Fluorescence was immediately monitored by excitation/emission wavelengths of 360 nm/480 nm respectively over a period of 5 minutes in a microplate reader. The resulting linear increase in fluorescence emission (reflecting PKa proteolysis of PFR-AMC substrate) was fit to extract a proteolytic rate (fluorescent units over time), and this rate was subsequently plotted against compound inhibitor concentration. Resulting plots were fit to a standard 4-parameter IC50/C90 equation to determine min/max values, IC50/90, and slope. All experimental steps were performed at room temperature.

[2] = target: human activated kallikrein enzyme (Homo sapiens, UniProt P03952); assay: Inhibition of human activated plasma kallikrein, fluorogenic peptide substrate (PFR-AMC), 500 pM enzyme format; assay type: biochemical; details: 500 pM activated kallikrein, 30 min preincubation, 10 min reaction, room temperature, read-out: Primary Dose Response Assay: Average EC50
Description: Compounds were evaluated for inhibition of the human activated kallikrein enzyme in two formats of an assay employing a fluorogenic peptide substrate. In one assay format, the concentrations of reagents were as follows: 20 mM Tris pH 7.5, 1 mM EDTA, 150 mM sodium chloride, 0.1% PEG-400, 0.1% Triton X-100, 500 pM activated kallikrein enzyme, […] Pro-Phe-Arg-7-amido-4-methylcoumarin (PFR-AMC) substrate. Prior to reaction initiation with substrate, enzyme and inhibitors were preincubated for 30 min at room temperature. After initiation with substrate, reactions were incubated for 10 min at room temperature and fluorescence emission at 460 nm from 380 nm excitation measured with a microplate reader. In another assay format, the concentrations of reagents were as follows: 20 mM Tris pH 7.5, 1 mM EDTA, 150 mM sodium chloride, 0.1% PEG-400, 0.1% Triton X-100, 5 pM activated kallikrein enzyme, 300 uM PFR-AMC substrate. Prior to reaction initiation with substrate, enzyme and inhibitors were preincubated for 30 min at room temperature. After initiation with substrate, reactions were incubated for 18 hr at room temperature and fluorescence emission at 460 nm from 380 nm excitation measured with a microplate reader.

Chain of human activated kallikrein enzyme (P03952 391-638 limits assumed): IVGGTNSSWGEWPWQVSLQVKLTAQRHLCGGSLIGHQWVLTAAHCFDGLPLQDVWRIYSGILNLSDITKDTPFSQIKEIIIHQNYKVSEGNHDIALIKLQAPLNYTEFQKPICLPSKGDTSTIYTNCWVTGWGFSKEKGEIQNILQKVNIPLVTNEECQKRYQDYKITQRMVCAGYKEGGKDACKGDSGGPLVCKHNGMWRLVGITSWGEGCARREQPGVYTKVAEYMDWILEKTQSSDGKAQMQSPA
Chain of human activated kallikrein enzyme (P03952 20-390 partner limits assumed): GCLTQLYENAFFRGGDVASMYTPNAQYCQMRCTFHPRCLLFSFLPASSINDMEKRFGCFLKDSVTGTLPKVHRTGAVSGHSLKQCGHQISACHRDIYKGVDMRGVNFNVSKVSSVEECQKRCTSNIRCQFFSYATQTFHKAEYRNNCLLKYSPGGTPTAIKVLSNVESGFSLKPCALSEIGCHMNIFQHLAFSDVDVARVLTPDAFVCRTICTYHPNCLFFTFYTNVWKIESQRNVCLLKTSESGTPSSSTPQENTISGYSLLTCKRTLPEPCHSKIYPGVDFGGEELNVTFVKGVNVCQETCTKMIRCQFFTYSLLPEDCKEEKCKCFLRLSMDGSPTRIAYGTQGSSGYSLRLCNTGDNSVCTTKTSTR
T1 sequence (P03952 391-638 limits assumed): as the sequence (P03952 391-638 limits assumed) above
T1 sequence (P03952 20-390 partner limits assumed): as the sequence (P03952 20-390 partner limits assumed) above

SMILES | IC90 [1] | EC50 [2]
N#Cc1ccc(Cl)cc1[C@H]1C[C@@H]1C(=O)Nc1cc(NCc2cn3cc(C4CC4)cnc3n2)ccn1 (racemic) [Example 22, rac-(1S*,2S*)-2-(5-chloro-2-cyanophenyl)-N-(4-(((6-cyclopropylimidazo[1,2-a]pyrimidin-2-yl)methyl)amino)pyridin-2-yl)cyclopropane-1-carboxamide] | 5 to 65 µM | < 0.0025 µM
O=C(Nc1cc(NCc2nc3ncc(C4CC4)cn3n2)ccn1)[C@@H]1C[C@]12CCc1ccc(Cl)cc12 (racemic) [Example 41, rac-(1S*,2S*)-6′-chloro-N-(4-(((6-cyclopropyl-[1,2,4]triazolo[1,5-a]pyrimidin-2-yl)methyl)amino)pyridin-2-yl)-2′,3′-dihydrospiro[cyclopropane-1,1′-indene]-2-carboxamide] | 5 to 65 µM | < 0.0025 µM
N#Cc1ccc(Cl)cc1[C@H]1C[C@@H]1C(=O)Nc1cc(NCc2nc3ncc(C4CC4)cn3n2)ccn1 (racemic) [Example 42, rac-(1S*,2S*)-2-(5-chloro-2-cyanophenyl)-N-(4-(((6-cyclopropyl-[1,2,4]triazolo[1,5-a]pyrimidin-2-yl)methyl)amino)pyridin-2-yl)cyclopropane-1-carboxamide] | 0.5 to 5 µM | < 0.0025 µM
O=C(Nc1cc(NCc2cc3cc(C4CC4)cc(N4CCOC4=O)n3n2)ncn1)[C@H]1C[C@@H]1c1cc(Cl)ccn1 (racemic) [Example 56, rac-(1S*,2S*)-2-(4-chloropyridin-2-yl)-N-(6-(((5-cyclopropyl-7-(2-oxooxazolidin-3-yl)pyrazolo[1,5-a]pyridin-2-yl)methyl)amino)pyrimidin-4-yl)cyclopropane-1-carboxamide] | 5 to 65 µM | < 0.0025 µM
CN1C(=O)CN(c2cc(C3CC3)cc3cc(CNc4cc(NC(=O)[C@H]5C[C@@H]5c5cc(Cl)ccn5)ncn4)nn23)C1=O (racemic) [Example 57, rac-(1S*,2S*)-2-(4-chloropyridin-2-yl)-N-(6-(((5-cyclopropyl-7-(3-methyl-2,4-dioxoimidazolidin-1-yl)pyrazolo[1,5-a]pyridin-2-yl)methyl)amino)pyrimidin-4-yl)cyclopropane-1-carboxamide] | 0.5 to 5 µM | < 0.0025 µM
Cc1ccnc([C@H]2C[C@@H]2C(=O)Nc2nccc(NCc3cn4cc(C5CC5)cnc4n3)n2)n1 (racemic) [Example 77, rac-(1S*,2S*)—N-(4-(((6-cyclopropylimidazo[1,2-a]pyrimidin-2yl)methyl)amino)pyrimidin-2-yl)-2-(4-methylpyrimidin-2-yl)cyclopropane-1-carboxamide] | 0.5 to 5 µM | < 0.0025 µM
Cc1ccnc([C@H]2C[C@@H]2C(=O)Nc2cc(NCc3cn4cc(C5CC5)nc(N5CC(=O)N(C)C5=O)c4n3)ncn2)n1 (racemic) [Example 80, rac-(1S*,2S*)—N-(6-(((6-cyclopropyl-8-(3-methyl-2,4-dioxoimidazolidin-1-yl)imidazo[1,2-a]pyrazin-2-yl)methyl)amino)pyrimidin-4-yl)-2-(4-methylpyrimidin-2-yl)cyclopropane-1-carboxamide] | < 0.5 µM | < 0.0025 µM
Cc1ccnc([C@H]2C[C@@H]2C(=O)Nc2ncc(F)c(NCc3cn4cc(C5CC5)nc(N5CC(=O)N(C)C5=O)c4n3)n2)n1 (racemic) [Example 84, rac-(1S*,2S*)—N-(4-(((6-cyclopropyl-8-(3-methyl-2,4-dioxoimidazolidin-1-yl)imidazo[1,2-a]pyrazin-2-yl)methyl)amino)-5-fluoropyrimidin-2-yl)-2-(4-methylpyrimidin-2-yl) cyclopropane-1-carboxamide] | < 0.5 µM | < 0.0025 µM
Cc1ccnc([C@H]2C[C@@H]2C(=O)Nc2cc(N3C[C@@H](O)C[C@@H]3c3ccc(N4CC5CC5C4)nc3)ncn2)n1 (relative stereo) [Example 71, rac-(1S*,2S*)—N-(6-((2R^•,4S)-2-(6-(3-azabicyclo[3.1.0]hexan-3-yl)pyridin-3-yl)-4-hydroxypyrrolidin-1-yl)pyrimidin-4-yl)-2-(4-methylpyrimidin-2-yl)cyclopropane-1-carboxamide] | 0.5 to 5 µM | 0.0025 to 0.025 µM
Cc1ccnc([C@H]2C[C@@H]2C(=O)Nc2cc(N3C[C@@H](O)C[C@@H]3c3cn4cc(C5CC5)cnc4n3)ncn2)n1 (relative stereo) [Example 72, rac-(1S*,2S*)—N-(6-((2R,4S)-2-(6-cyclopropylimidazo[1,2-a]pyrimidin-2-yl)-4-hydroxypyrrolidin-1-yl)pyrimidin-4-yl)-2-(4-methylpyrimidin-2-yl)cyclopropane-1-carboxamide] | 0.5 to 5 µM | < 0.0025 µM
Cc1ccnc([C@H]2C[C@@H]2C(=O)Nc2cc(N3C[C@@H](O)C[C@@H]3c3cn4cc(C5CC5)cnc4n3)ncn2)c1 (single isomer, unassigned) [Example 75, (1S*,2S*)—N-(6-((2R,4S)-2-(6-cyclopropylimidazo[1,2-a]pyrimidin-2-yl)-4-hydroxypyrrolidin-1-yl)pyrimidin-4-yl)-2-(4-methylpyridin-2-yl)cyclopropane-1-carboxamide] | 0.5 to 5 µM | 0.0025 to 0.025 µM
CN1CCN(c2cc(Cl)cc3cc(CNc4cc(NC(=O)[C@H]5C[C@@H]5c5cccc(Cl)c5)ncn4)cnc23)CC1 [Example 59, (1S,2S)—N-(6-(((6-chloro-8-(4-methylpiperazin-1-yl)quinolin-3-yl)methyl)amino)pyrimidin-4-yl)-2-(3-chlorophenyl)cyclopropane-1-carboxamide] |  | 0.0025 to 0.025 µM
CN1C(=O)CN(c2cc(C3CC3)nn3cc(CNc4cc(NC(=O)[C@H]5C[C@@H]5c5cccc(Cl)c5)ncn4)nc23)C1=O [Example 62, (S,2S)-2-(3-chlorophenyl)-N-(6-(((6-cyclopropyl-8-(3-methyl-2,4-dioxoimidazolidin-1-yl)imidazo[1,2-b]pyridazin-2-yl)methyl)amino)pyrimidin-4-yl)cyclopropane-1-carboxamide] |  | 0.0025 to 0.025 µM
O=C(Nc1cc(N2C[C@@H](O)C[C@@H]2C(=O)Nc2ccc(C3CC3)cc2)ncn1)[C@H]1C[C@@H]1c1cccc(Cl)c1 [Example 64, (2R,4S)-1-(6-((1S,2S)-2-(3-chlorophenyl)cyclopropane-1-carboxamido)pyrimidin-4-yl)-N-(4-cyclopropylphenyl)-4-hydroxypyrrolidine-2-carboxamide] |  | > 0.5 µM
CN(C(=O)[C@H]1C[C@H](O)CN1c1cc(NC(=O)[C@H]2C[C@@H]2c2cccc(Cl)c2)ncn1)c1ccc(C2CC2)cc1 [Example 65, (2R,4S)-1-(6-((1S,2S)-2-(3-chlorophenyl)cyclopropane-1-carboxamido)pyrimidin-4-yl)-N-(4-cyclopropylphenyl)-4-hydroxy-N-methylpyrrolidine-2-carboxamide] |  | > 0.5 µM
O=C(Nc1cc(N2C[C@@H](O)CC2c2ccc(N3CC4CC4C3)nc2)ncn1)[C@H]1C[C@@H]1c1cccc(Cl)c1 (stereo partly drawn) [Example 67, (S,2S)—N-(6-((4S)-2-(6-(3-azabicyclo[3.1.0]hexan-3-yl)pyridin-3-yl)-4-hydroxypyrrolidin-1-yl)pyrimidin-4-yl)-2-(3-chlorophenyl)cyclopropane-1-carboxamide] |  | 0.025 to 0.5 µM
O=C1CN(c2cc(C3CC3)cn3nc(CNc4cc(NC(=O)[C@H]5C[C@@H]5c5cc(Cl)ccn5)ncn4)nc23)C(=O)N1 [Example 68, (1S,2S)-2-(4-chloropyridin-2-yl)-N-(6-(((6-cyclopropyl-8-(2,4-dioxoimidazolidin-1-yl)-[1,2,4]triazolo[1,5-a]pyridin-2-yl)methyl)amino)pyrimidin-4-yl)cyclopropane-1-carboxamide] |  | < 0.0025 µM
Cc1ccnc([C@H]2C[C@@H]2C(=O)Nc2cc(NCc3cc(F)c4ncc(Cl)cc4c3)nc(C)n2)n1 [Example 91, (1S,2S)—N-(6-(((3-chloro-8-fluoroquinolin-6-yl)methyl)amino)-2-methylpyrimidin-4-yl)-2-(4-methylpyrimidin-2-yl)cyclopropane-1-carboxamide] |  | 0.0025 to 0.025 µM
Cc1ccnc([C@H]2C[C@@H]2C(=O)Nc2cc(OCc3cc(F)c4ncc(Cl)cc4c3)cnn2)n1 [Example 92, (1S,2S)—N-(5-((3-chloro-8-fluoroquinolin-6-yl)methoxy)pyridazin-3-yl)-2-(4-methylpyrimidin-2-yl)cyclopropane-1-carboxamide] |  | 0.0025 to 0.025 µM
